Test systems include UACC-62; A498; 786-0; SK-MEL-5; SNB-19; OVCAR-8; CAKI-1; ACHN; PC-3; Malme-3M; COLO 205; A549; SN12C; KM12; T47D; HT-29; EKVX; NCI-H23; SW-620; HCC 2998.
Experiment in all cases: NCI-60 cell line screen, 48 h

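These data come from cells grown in 96-well plates and exposed to compound for 48 hours at five concentrations. The concentration for 50% growth inhibition is given as GI50.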 Calls of active or inactive are those of the source. Cut-off read from the data, not from the text of the source: active = GI50 up to about 1.1 µM and inactive = higher.

`NCCCN1CCN(c2ccccc2)CC1`: the GI50 in the experiment on UACC-62 was 70 µM (inactive); in the experiment with A498 it was > 100 µM (inactive); in the experiment on 786-0, > 100 µM (inactive); in the experiment on SK-MEL-5 it was > 100 µM (inactive); with SNB-19, > 100 µM (inactive); in the experiment on OVCAR-8, > 100 µM (inactive). The GI50 is > 100 µM (inactive) in the experiment with CAKI-1; > 100 µM (inactive) with ACHN; 33.4 µM (inactive) with PC-3; > 100 µM (inactive) in the experiment on Malme-3M; 78.7 µM (inactive) in the experiment on COLO 205; > 100 µM (inactive) in the experiment on A549. Besides, the GI50 is > 100 µM (inactive) in the experiment with SN12C; > 100 µM (inactive) with KM12; > 100 µM (inactive) with T47D; 95.1 µM (inactive) with HT-29; > 100 µM (inactive) in the experiment on EKVX.
Consider `Clc1ccccc1NN(Cc1ccccn1)c1ccccc1Cl`, for which the GI50 with UACC-62 is 16.7 µM (inactive); in the experiment with A498, 20.5 µM (inactive); with 786-0, 16.9 µM (inactive); in the experiment on SK-MEL-5, 14.5 µM (inactive); in the experiment on SNB-19, 27.9 µM (inactive); with OVCAR-8 it was 21.2 µM (inactive). Moreover, the GI50 in the experiment with CAKI-1 was 54.3 µM (inactive); in the experiment with ACHN it was 33.9 µM (inactive); in the experiment on PC-3, 29.2 µM (inactive); with Malme-3M, 19 µM (inactive); with COLO 205 it was 15.6 µM (inactive); with A549 it was 16.7 µM (inactive). The GI50 was 18.8 µM (inactive) in the experiment with SN12C; 16.9 µM (inactive) in the experiment with KM12; 27.4 µM (inactive) in the experiment with T47D; 20 µM (inactive) with NCI-H23; 14.6 µM (inactive) with HT-29; 23 µM (inactive) in the experiment with EKVX. In the experiment with SW-620, the GI50 is 17.7 µM (inactive).
On to `O=C1C(c2c(O)[nH]c3ccc(I)cc23)=Nc2ccccc21`, for which the GI50 is 4.66 µM (inactive) with UACC-62; 1.9 µM (inactive) in the experiment with A498; 2.02 µM (inactive) with 786-0; 2.57 µM (inactive) in the experiment with SK-MEL-5; 4.95 µM (inactive) with SNB-19; 2.15 µM (inactive) in the experiment with OVCAR-8. Further, the GI50 was 7.06 µM (inactive) in the experiment with CAKI-1; 3.23 µM (inactive) in the experiment with ACHN; 2.94 µM (inactive) in the experiment on PC-3; 8.17 µM (inactive) in the experiment on Malme-3M; 11.6 µM (inactive) with COLO 205; 3.84 µM (inactive) in the experiment on A549. Moreover, the GI50 was 9.25 µM (inactive) in the experiment with SN12C; 5.24 µM (inactive) with KM12; 3.51 µM (inactive) in the experiment on T47D; 5.61 µM (inactive) in the experiment with NCI-H23; 7.1 µM (inactive) in the experiment on HT-29; 4.67 µM (inactive) with EKVX. Also, the GI50 in the experiment on SW-620 was 13.2 µM (inactive).
Turning to `O=C1CC(c2ccc(O)cc2)C2(O1)C(=O)OC(C(O)CO)C2O` (stereo not given), the GI50 in the experiment with UACC-62, in the experiment on A498, in the experiment on 786-0, in the experiment on SK-MEL-5, in the experiment with SNB-19 and with OVCAR-8 was > 100 µM (inactive) throughout. The GI50 in the experiment on CAKI-1 is > 100 µM (inactive); with ACHN it was > 100 µM (inactive); in the experiment on PC-3, > 100 µM (inactive); in the experiment with Malme-3M, 96.2 µM (inactive); in the experiment with COLO 205, > 100 µM (inactive); with SN12C, > 100 µM (inactive). For the same compound, the GI50 in the experiment on KM12, with T47D, with NCI-H23, in the experiment with HT-29, with EKVX and with SW-620 was > 100 µM (inactive) in each case.
Turning to `CC(=O)Oc1ccc(-c2c(OC(C)=O)c(OC(C)=O)c(-c3ccc(OC(C)=O)c(OC(C)=O)c3)c(OC(C)=O)c2OC(C)=O)cc1`, the GI50 with UACC-62 is 17.8 µM (inactive); with A498, 20.1 µM (inactive); in the experiment with 786-0, 16.1 µM (inactive); in the experiment on SK-MEL-5, 11.7 µM (inactive); in the experiment with SNB-19, 15.8 µM (inactive); with OVCAR-8, 14.6 µM (inactive). In addition, the GI50 was 21.3 µM (inactive) in the experiment with CAKI-1; 16.4 µM (inactive) in the experiment on ACHN; 15.9 µM (inactive) in the experiment with PC-3; 16.1 µM (inactive) in the experiment on Malme-3M; 17.7 µM (inactive) in the experiment with COLO 205; 17.8 µM (inactive) with A549. The GI50 is 18.8 µM (inactive) in the experiment with SN12C; 14.4 µM (inactive) in the experiment on KM12; 10.6 µM (inactive) in the experiment with T47D; 19 µM (inactive) in the experiment with NCI-H23; 18.2 µM (inactive) in the experiment on HT-29; 0.553 µM (active) with EKVX. In addition, the GI50 in the experiment with SW-620 is 14.9 µM (inactive).
On to `c1ccc(C(CCN2CC3CCC(CC3)C2)c2ccccc2)cc1`, for which the GI50 in the experiment on UACC-62 was 17.1 µM (inactive); with A498, 15.6 µM (inactive); in the experiment on 786-0 it was 17.3 µM (inactive); with SK-MEL-5, 16.5 µM (inactive); with SNB-19 it was 34.4 µM (inactive); in the experiment with OVCAR-8, 28.6 µM (inactive). The GI50 was 37.9 µM (inactive) in the experiment on CAKI-1; 22.8 µM (inactive) in the experiment on ACHN; 31.5 µM (inactive) in the experiment with PC-3; 16.3 µM (inactive) with Malme-3M; 12.6 µM (inactive) in the experiment with COLO 205; 31.2 µM (inactive) in the experiment on A549. The GI50 in the experiment on SN12C was 26.4 µM (inactive); in the experiment with KM12, 23.9 µM (inactive); with T47D, 20 µM (inactive); with NCI-H23, 18 µM (inactive); in the experiment on HT-29, 13.9 µM (inactive); in the experiment with EKVX, 37.8 µM (inactive). In addition, the GI50 in the experiment on SW-620 was 29.9 µM (inactive).
Turning to `COc1ccc(C(=O)O[C@@H]2CCN3CC[C@H](C)[C@H]23)cc1`, the GI50 in the experiment with UACC-62, in the experiment on A498, in the experiment on 786-0, in the experiment with SK-MEL-5, with SNB-19 and in the experiment on OVCAR-8 was > 100 µM (inactive) in each case. Besides, the GI50 with CAKI-1, in the experiment with ACHN, in the experiment with PC-3, with COLO 205, with A549 and in the experiment with SN12C was > 100 µM (inactive) each time. Further, the GI50 in the experiment on KM12, in the experiment with T47D, in the experiment on NCI-H23, in the experiment on HT-29, with EKVX and in the experiment with SW-620 was > 100 µM (inactive) throughout.
With `CN1CCN(c2ccc(-n3cc(C(=O)O)c(=O)c4cc(F)c(N5CCN(C)CC5)cc43)nc2)CC1`, the GI50 in the experiment on UACC-62 is > 100 µM (inactive); with A498, > 100 µM (inactive); in the experiment on 786-0 it was 64.7 µM (inactive); with SNB-19, > 100 µM (inactive); in the experiment with OVCAR-8 it was 85.1 µM (inactive); with CAKI-1, > 100 µM (inactive). Moreover, the GI50 in the experiment on PC-3 was > 100 µM (inactive); in the experiment with Malme-3M, 95.5 µM (inactive); with COLO 205 it was 25.4 µM (inactive); with A549 it was > 100 µM (inactive); with SN12C it was > 100 µM (inactive); in the experiment with KM12, 33.6 µM (inactive). Also, the GI50 with T47D was > 100 µM (inactive); with NCI-H23, > 100 µM (inactive); in the experiment on HT-29, 65.5 µM (inactive); in the experiment on EKVX, > 100 µM (inactive); in the experiment on SW-620, 56.2 µM (inactive).
For the compound `O=NC1c2cccc3cccc(c23)C1N=O` (stereo not given), the GI50 in the experiment with A498 was 17.5 µM (inactive); with 786-0, 12.9 µM (inactive); in the experiment with SK-MEL-5 it was 14 µM (inactive); with SNB-19 it was 11.8 µM (inactive); in the experiment on OVCAR-8, 2.07 µM (inactive); with CAKI-1, 2.77 µM (inactive). Also, the GI50 with ACHN is 1.72 µM (inactive); with PC-3, 10.1 µM (inactive); in the experiment on COLO 205 it was 3.17 µM (inactive); with A549, 2.43 µM (inactive); in the experiment on KM12, 3.89 µM (inactive); with T47D it was 17 µM (inactive). For the same compound, the GI50 in the experiment with NCI-H23 was 8.87 µM (inactive); in the experiment with HT-29 it was 10.9 µM (inactive); in the experiment with EKVX, 2.58 µM (inactive); in the experiment on SW-620, 2.45 µM (inactive).
Turning to `CC(=O)c1cccc(NC2C(N)C(NC(=O)N(C)C)(C(C)O)C(C)(O)C2(O)COC(=O)c2c(C)cccc2O)c1` (stereo not given), the GI50 with UACC-62 was 0.01 µM (active); in the experiment on A498 it was < 0.001 µM (active); in the experiment on 786-0, < 0.001 µM (active); with SK-MEL-5 it was < 0.001 µM (active); in the experiment on SNB-19 it was < 0.001 µM (active); in the experiment on OVCAR-8, < 0.001 µM (active). In addition, the GI50 in the experiment on CAKI-1, in the experiment on ACHN, in the experiment with Malme-3M, in the experiment on COLO 205, in the experiment on A549 and in the experiment with SN12C was < 0.001 µM (active) in each case. Besides, the GI50 in the experiment on KM12, in the experiment on T47D, in the experiment on NCI-H23, with HT-29, in the experiment with EKVX and in the experiment on HCC 2998 was < 0.001 µM (active) in each case. In addition, in the experiment on SW-620, the GI50 is < 0.001 µM (active).
On to `O=[N+]([O-])c1ccc(/C=N/n2c(CO)nc3ccccc32)o1`, for which the GI50 was 7.52 µM (inactive) in the experiment with UACC-62; 17.9 µM (inactive) with A498; 4.04 µM (inactive) in the experiment on 786-0; 2.14 µM (inactive) with SK-MEL-5; 15.8 µM (inactive) in the experiment with SNB-19; 10.3 µM (inactive) with OVCAR-8. The GI50 in the experiment with CAKI-1 is 9.68 µM (inactive); with ACHN, 4.25 µM (inactive); in the experiment on PC-3, 10.2 µM (inactive); in the experiment with Malme-3M, 2.16 µM (inactive); with COLO 205 it was 3.1 µM (inactive); in the experiment with A549, 10.5 µM (inactive). Also, the GI50 in the experiment with SN12C was 5.35 µM (inactive); in the experiment with KM12, 3.11 µM (inactive); with T47D it was 20.5 µM (inactive); in the experiment with NCI-H23 it was 5.42 µM (inactive); with HT-29, 2.8 µM (inactive); in the experiment with EKVX, 11.3 µM (inactive). For the same compound, in the experiment with SW-620, the GI50 is 5.71 µM (inactive).

These data come from ChEMBL document CHEMBL1201862, “PubChem BioAssay data set” (2004).
